# Tested on: hepatocellular carcinoma cell line Hub-7
# Experiment: Cell proliferation assay (CELL-TITER GLO cell viability)
# Type: cell-based
# Settings: 24 h, Hub-7 cells, 24 h incubation, read-out: Inhibition of Cell Proliferation EC50
# Protocol: The activity of a test compound was determined in a cell proliferation assay using the hepatocellular carcinoma cell line […]. Cells (4,000 cells per well) were seeded in a 96-well tissue culture plate. After incubated overnight, a test compound was added at predetermined concentrations, starting with 10 μM and followed by 3-fold serial dilution. After the cells were incubated for 24 h, cell viability was determined using a CELL-TITER GLO® assay. The CELL-TITER GLO® reagent (50 μL) was added to each well and the luminescence was measured by a multimode microplate reader after a brief period of shaking. EC50 values were determined for the test compound. The results are summarized in Table 1, wherein A represents a value no greater than 100 nM, B represents a value greater than 100 nM but no greater than 500 nM, C represents a value greater than 500 nM but no greater than 2 μM, D represents a value greater than 2 μM but no greater than 10 μM; and E represents a value greater than 10 μM.
row,Compound,EC50 [nM]
1,"C#CC(=O)N(c1cccc(NC(C)=O)c1)C(C(=O)NCc1ccccc1)c1cccc(N)c1 (stereo not drawn) [A44, N-(3-Acetamidophenyl)-N-(1-(3-aminophenyl)-2-(benzylamino)-2-oxoethyl)-propiolamide]",2000 to 10000
2,"O=C(CCl)N(c1ccc2c(c1)OCO2)C1(C(=O)NCc2ccccc2)CCOCC1 [C19, 4-(N-(Benzo[d][1,3]dioxol-5-yl)-2-chloroacetamido)-N-benzyltetrahydro-2H-pyran-4-carboxamide]",2000 to 10000
3,"Nc1ccc(N(C(=O)CCl)C(C(=O)NCCc2ccccc2)c2cccs2)cc1 (stereo not drawn) [C2, N-(4-Aminophenyl)-2-chloro-N-(2-oxo-2-(phenethylamino)-1-(thiophen-2-yl)-ethyl)acetamide]",2000 to 10000
4,"C#CC(=O)N(c1cccc(Cl)c1)C(C(=O)NCc1ccccc1)C1CCOCC1 (stereo not drawn) [A78, N-(2-(Benzylamino)-2-oxo-1-(tetrahydro-2H-pyran-4-yl)ethyl)-N-(3-chloro-phenyl)propiolamide]",500 to 2000
5,"C=CC(=O)N(c1ccc(OC)c(Cl)c1)C(C(=O)NCc1ccccc1)c1cccc(N)c1 (stereo not drawn) [B2, N-(2-(benzylamino)-1-(3-aminophenyl)-2-oxoethyl)-N-(3-chloro-4-methoxyphenyl)acrylamide]",> 10000
6,"C#CC(=O)N(c1ccc2nsnc2c1)C(C(=O)NCc1ccccc1)c1ccccc1 (stereo not drawn) [A94, N-(Benzo[c][1,2,5]thiadiazol-5-yl)-N-(2-(benzylamino)-2-oxo-1-phenylethyl)-propiolamide]",≤ 100
7,"C#CC(=O)N(c1cccc(C(=O)OC)c1)C(C(=O)NCc1ccccc1)c1cccs1 (stereo not drawn) [A73, Methyl 3-(N-(2-(benzylamino)-2-oxo-1-(thiophen-2-yl)ethyl)propiolamido)-benzoate]",≤ 100
8,"C#CC(=O)N(Cc1cccc(O)c1)C1(C(=O)NCc2ccccc2)CCCC(C(=O)O)C1 (stereo not drawn) [A170, 3-(Benzylcarbamoyl)-3-(N-(3-hydroxybenzyl)propiolamido)cyclohexane-1-carboxylic acid]",> 10000
9,"C#CC(=O)N(c1cccc(S(N)(=O)=O)c1)C(C(=O)NC(C)(C)C)c1ccc(N)cc1 (stereo not drawn) [A2, N-(1-(4-aminophenyl)-2-(tert-butylamino)-2-oxoethyl)-N-(3-sulfamoylphenyl)propiolamide]",> 10000
10,"C#CC(=O)N(c1ccc(C#N)cc1)C(C(=O)NCc1ccccc1)c1cccc(N)c1 (stereo not drawn) [A48, N-(1-(3-Aminophenyl)-2-(benzylamino)-2-oxoethyl)-N-(4-cyanophenyl)-propiolamide]",≤ 100
11,"C#CC(=O)N(c1ccc(O)cc1)C(C(=O)NC(C)(C)C)c1cccc(N)c1 (stereo not drawn) [A27, N-(1-(3-Aminophenyl)-2-(tert-butylamino)-2-oxoethyl)-N-(4-hydroxyphenyl)-propiolamide]",2000 to 10000
12,"C#CC(=O)N(c1ccc(Cl)c(Cl)c1)C1(C(=O)NCc2ccccc2)CCCCC1 [A109, N-Benzyl-1-(N-(3,4-dichlorophenyl)propiolamido)cyclohexanecarboxamide]",100 to 500
13,"CC(=O)N(c1ccc2c(cnn2C)c1)C1(C(=O)NCc2ccccc2)CCCOC1 (stereo not drawn) [D2, N-Benzyl-3-(N-(1-methyl-1H-indazol-5-yl)acetamido)tetrahydro-2H-pyran-3-carboxamide]",> 10000
14,"COc1ccc(N(C(=O)CCl)C2(C(=O)NCc3ccccc3)CCOCC2)cc1Cl [C25, N-Benzyl-4-(2-chloro-N-(3-chloro-4-methoxyphenyl)acetamido)tetrahydro-2H-pyran-4-carboxamide]",100 to 500
15,"C#CC(=O)N(c1cccc2nonc12)C(C(=O)NCc1ccccc1)c1ccccc1 (stereo not drawn) [A106, N-(Benzo[c][1,2,5]oxadiazol-4-yl)-N-(2-(benzylamino)-2-oxo-1-phenylethyl)-propiolamide]",100 to 500
16,"C#CC(=O)N(c1cccc(Cl)c1)C(C(=O)NCc1ccccc1F)c1ccccc1 (stereo not drawn) [A116, N-(3-Chlorophenyl)-N-(2-((2-fluorobenzyl)amino)-2-oxo-1-phenylethyl)-propiolamide]",100 to 500
17,"C#CC(=O)N(c1cccc(-c2cc[nH]n2)c1)C1(C(=O)NCc2ccccc2)CCOCC1 [A135, 4-(N-(3-(1H-Pyrazol-3-yl)phenyl)propiolamido)-N-benzyltetrahydro-2H-pyran-4-carboxamide]",100 to 500
18,"C#CC(=O)N(c1cccc(OC)c1)C(C(=O)NCc1ccccc1)c1ccc(N)cc1 (stereo not drawn) [A61, N-(1-(4-Aminophenyl)-2-(benzylamino)-2-oxoethyl)-N-(3-methoxyphenyl)-propiolamide]",≤ 100
19,"CC#CC(=O)N(c1ccc2c(cnn2C)c1)C1(C(=O)NCc2ccccc2)CCCC(C(=O)OC)C1 (stereo not drawn) [A127, Methyl3-(benzylcarbamoyl)-3-(N-(1-methyl-1H-indazol-5-yl)but-2-ynamido)-cyclohexane-1-carboxylate]",> 10000

row,Compound,EC50 [nM]
1,"C#CC(=O)N(C1CCC(=O)N(C)C1)C(C(=O)NCc1ccccc1)c1ccccc1 (stereo not drawn) [A158, N-(2-(Benzylamino)-2-oxo-1-phenylethyl)-N-(1-methyl-6-oxopiperidin-3-yl)-propiolamide]",2000 to 10000
2,"C#CC(=O)N(c1ccc(CO)cc1)C(C(=O)NC(C)(C)C)c1ccc(N)cc1 (stereo not drawn) [A16, N-(1-(4-Aminophenyl)-2-(tert-butylamino)-2-oxoethyl)-N-(4-(hydroxymethyl)-phenyl)propiolamide]",2000 to 10000
3,"C#CC(=O)N(c1ccc(Cl)c(Cl)c1)C(C(=O)NCc1ccccc1)c1ccc(N)cc1 (stereo not drawn) [A65, N-(1-(4-Aminophenyl)-2-(benzylamino)-2-oxoethyl)-N-(3,4-dichlorophenyl)-propiolamide]",≤ 100
4,"CC#CC(=O)N(c1ccc2c(cnn2C)c1)C1(C(=O)NCc2ccccc2)CCOCC1 [A125, N-Benzyl-4-(N-(1-methyl-1H-indazol-5-yl)but-2-ynamido)tetrahydro-2H-pyran-4-carboxamide]",> 10000
5,C#CC(=O)N(c1cccc(C(=O)OC)c1)C(C(=O)NCc1ccccc1)c1cccc(N)c1 (stereo not drawn) [A122],≤ 100
6,"C#CC(=O)N(c1cccc(Cl)c1)[C@]1(C(=O)NCc2ccccc2)CC[C@H](O)CC1 [A110, (1S,4S)—N-Benzyl-1-(N-(3-chlorophenyl)propiolamido)-4-hydroxycyclohexane-carboxamide]",100 to 500
7,"COc1ccc(N(C(=O)CCl)C2(C(=O)NCCc3ccccc3)CCOCC2)cc1Cl [C26, 4-(2-Chloro-N-(3-chloro-4-methoxyphenyl)acetamido)-N-phenethyltetrahydro-2H-pyran-4-carboxamide]",≤ 100
8,"C#CC(=O)N(c1ccc(OC)cc1)C(C(=O)NC(C)(C)C)c1ccc(N)cc1 (stereo not drawn) [A18, N-(1-(4-Aminophenyl)-2-(tert-butylamino)-2-oxoethyl)-N-(4-methoxyphenyl)-propiolamide]",500 to 2000
9,"C#CC(=O)N(c1ccc(NS(C)(=O)=O)cc1)C(C(=O)NC(C)(C)C)c1ccc(N)cc1 (stereo not drawn) [A17, N-(1-(4-Aminophenyl)-2-(tert-butylamino)-2-oxoethyl)-N-(4-(methyl-sulfonamido)phenyl)propiolamide]",> 10000
10,"C#CC(=O)N(Cc1ccc(C(=O)OC)cc1)C(C)C(=O)NCc1ccccc1 (stereo not drawn) [A84, Methyl 4-((N-(1-(benzylamino)-1-oxopropan-2-yl)propiolamido)methyl)-benzoate]",100 to 500
11,"C#CC(=O)N(c1cccc(C(=O)OC)c1)C(C(=O)NC(C)(C)C)c1ccc(N)cc1 (stereo not drawn) [A8, Methyl 3-(N-(1-(4-aminophenyl)-2-(tert-butylamino)-2-oxoethyl)-propiolamido)-benzoate]",≤ 100
12,"O=C(C#CCO)N(c1cc(Cl)ccc1Cl)C1(C(=O)NCc2ccccc2)CCOCC1 [A130, N-Benzyl-4-(N-(2,5-dichlorophenyl)-4-hydroxybut-2-ynamido)tetrahydro-2H-pyran-4-carboxamide]",> 10000
13,"C#CC(=O)N(c1ccc(C(N)=O)cc1)C(C(=O)NC(C)(C)C)c1ccc(N)cc1 (stereo not drawn) [A10, 4-(N-(1-(4-Aminophenyl)-2-(tert-butylamino)-2-oxoethyl)propiolamido)-benzamide]",> 10000
14,"CCC(=O)N(c1cccc(Cl)c1)C(C(=O)NCc1ccccc1)c1ccc(N)cc1 (stereo not drawn) [D4, N-(1-(4-Aminophenyl)-2-(benzylamino)-2-oxoethyl)-N-(3-chlorophenyl)-propionamide]",> 10000
15,"C#CC(=O)N(c1ccc(S(C)(=O)=O)cc1)C(C(=O)NC(C)(C)C)c1ccc(N)cc1 (stereo not drawn) [A15, N-(1-(4-Aminophenyl)-2-(tert-butylamino)-2-oxoethyl)-N-(4-(methylsulfonyl)-phenyl)propiolamide]",2000 to 10000
16,"C#CC(=O)N(c1ccc(S(N)(=O)=O)cc1)C(C(=O)NC(C)(C)C)c1cccc(N)c1 (stereo not drawn) [A25, N-(1-(3-Aminophenyl)-2-(tert-butylamino)-2-oxoethyl)-N-(4-sulfamoylphenyl)-propiolamide]",> 10000
17,"Cn1ncc2cc(N(C(=O)CCCl)C3(C(=O)NCc4ccccc4)CCOCC3)ccc21 [D5, N-Benzyl-4-(3-chloro-N-(1-methyl-1H-indazol-5-yl)propanamido)tetrahydro-2H-pyran-4-carboxamide]",> 10000
18,"C#CC(=O)N(c1cccc(Cl)c1)C1(C(=O)NCC(=O)NCc2ccccc2O)CCOCC1 [A185, 4-(N-(3-Chlorophenyl)propiolamido)-N-(2-((2-hydroxybenzyl)amino)-2-oxoethyl)tetrahydro-2H-pyran-4-carboxamide]",100 to 500
19,"CC#CC(=O)N(c1ccc(Cl)c(Cl)c1)C(C(=O)NCc1ccccc1)c1ccccc1 (stereo not drawn) [A132, N-(2-(Benzylamino)-2-oxo-1-phenylethyl)-N-(3,4-dichlorophenyl)but-2-ynamide]",> 10000

# Same assay, conditions: Hub-7 cells, 24 h incubation, read-out: Inhibition of Cell Proliferation EC50
row,Compound,EC50 [nM]
1,COc1ccc(N(C(=O)C#CCO)C(C(=O)NCCc2ccccc2)c2cccs2)cc1Cl (stereo not drawn) [A118],2000 to 10000

# Source: patent US12516016B2, “GPX4 inhibitors, pharmaceutical compositions thereof, and their use for treating GPX4-mediated diseases” (EUBULUS BIOTHERAPEUTICS (HONG KONG) LIMITED, priority 2020, dated 2026)
